Among the data in ChEMBL document CHEMBL5331091, “Design, synthesis and evaluation of antitumor activity of selective PRMT6 inhibitors” (Eur J Med Chem, 2023) are IC50 and Activity values, retold here.

Assay [1] deals with Protein arginine N-methyltransferase 6 (Homo sapiens, UniProt Q96LA8).
Description: Inhibition of PRMT6 (unknown origin) by AlphaLISA assay in vitro assay
In assay [2] the test system is MDA-MB-435. The experiment in a line: Induction of apoptosis in human MDA-MB-435 cells assessed as necrotic cells at 40 uM for 3 days by Annexin V and PI staining based flow cytometric analysis (reference value: 0.61%). In kind it is functional. As to conditions: time 3 day. On the technique in general: Flow cytometry measures light scatter and fluorescence of single cells or particles in a stream.

The test system of assay [3] is HCC827. As to the kind of experiment: Induction of apoptosis in human HCC827 cells assessed as early apoptotic cells at 40 uM for 3 days by Annexin V and PI staining based flow cytometric analysis (reference value: 0.44%). In kind it is functional. As to conditions: time 3 day.
Assay [4] relates to MDA-MB-435. The experiment in a line: Antiproliferative activity against human MDA-MB-435 cells for 5 days by MTT assay. As to conditions: MDA-MB-435, 120 h.
Assay [5] relates to HCC827. The experiment in a line: Antiproliferative activity against human HCC827 cells for 7 days by MTT assay. The note with it: HCC827, 168 h. (In general: Tetrazolium dyes change colour on reduction, which living cells bring about.)
Assay [6] relates to MDA-MB-435. As to the kind of experiment: Antiproliferative activity against human MDA-MB-435 cells for 3 days by MTT assay. As to conditions: MDA-MB-435, 72 h.
The test system of assay [7] is MDA-MB-435. As to the kind of experiment: Antiproliferative activity against human MDA-MB-435 cells for 7 days by MTT assay. As to conditions: MDA-MB-435, 168 h.
Assay [8] concerns HCC827. The experiment in a line: Antiproliferative activity against human HCC827 cells for 3 days by MTT assay. The note with it: HCC827, 72 h.
The subject of assay [9] is MDA-MB-435. As to the kind of experiment: Induction of apoptosis in human MDA-MB-435 cells assessed as early apoptotic cells at 40 uM for 3 days by Annexin V and PI staining based flow cytometric analysis (reference value: 0.38%). The note with it: time 3 day. In kind it is functional.
In assay [10] the test system is HCC827. As to the kind of experiment: Induction of apoptosis in human HCC827 cells assessed as late apoptotic cells at 40 uM for 3 days by Annexin V and PI staining based flow cytometric analysis (reference value: 0.05%). As to conditions: time 3 day. It is filed as functional.
Assay [11] concerns MDA-MB-435. The experiment in a line: Induction of apoptosis in human MDA-MB-435 cells assessed as late apoptotic cells at 40 uM for 3 days by Annexin V and PI staining based flow cytometric analysis (reference value: 0.45%). In kind it is functional. The note with it: time 3 day.
The subject of assay [12] is HCC827. As to the kind of experiment: Antiproliferative activity against human HCC827 cells for 5 days by MTT assay. The note with it: HCC827, 120 h.
In assay [13] the test system is HCC827. As to the kind of experiment: Induction of apoptosis in human HCC827 cells assessed as necrotic cells at 40 uM for 3 days by Annexin V and PI staining based flow cytometric analysis (reference value: 0.65%). In kind it is functional. The note with it: time 3 day.

Some results are limits rather than exact numbers.

Protein arginine N-methyltransferase 6, sequence (Q96LA8 whole entry): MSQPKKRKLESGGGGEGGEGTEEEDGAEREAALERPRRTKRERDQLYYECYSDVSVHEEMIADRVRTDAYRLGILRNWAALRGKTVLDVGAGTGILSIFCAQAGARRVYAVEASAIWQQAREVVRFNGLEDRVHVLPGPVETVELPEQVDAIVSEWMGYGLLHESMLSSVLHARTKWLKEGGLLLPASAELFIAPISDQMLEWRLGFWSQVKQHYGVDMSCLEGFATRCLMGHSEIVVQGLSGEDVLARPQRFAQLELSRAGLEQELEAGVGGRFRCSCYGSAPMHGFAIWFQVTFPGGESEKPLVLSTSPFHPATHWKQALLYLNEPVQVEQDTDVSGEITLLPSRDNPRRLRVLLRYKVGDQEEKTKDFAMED

With `CNCCN(C)Cc1ccnc(-c2ccc(NS(=O)(=O)C3CC3)cc2)c1`, 0.03 µM corresponded to half-maximal inhibition in [1] (IC50). Same read-out and setting: in the case of `CNCCN(C)Cc1cncc(-c2cccc(N(S(=O)(=O)c3ccccc3C)S(=O)(=O)c3ccccc3C)c2)c1` it was over 5 µM. On the same count and under the same terms, in the case of `CN(CCN)Cc1cncc(-c2cccc(NS(=O)(=O)c3cccs3)c2)c1` it was over 5 µM.

On to `CNCCN(C)Cc1cc(-c2ccc(NS(=O)(=O)C3CC3)cc2)ccn1`, for which the IC50 (as a rule, the concentration that gives 50% inhibition) in assay [1] was found to be 1.06 µM. Still for that read-out and setting: in the case of `CN(CCN)Cc1cncc(-c2ccc(OC(F)(F)F)cc2)c1` it was 6.36 µM; in that of `CNCCN(C)Cc1cncc(-c2cccc(NS(=O)(=O)c3ccc([N+](=O)[O-])cc3)c2)c1`, over 5 µM. Turning to `CNCCN(C)Cc1cncc(-c2cccc(NC(=O)N3CCOCC3)c2)c1`, the 50% inhibitory concentration (IC50) in assay [1] was 1.54 µM. Same read-out and setting: the result for `COc1cc(OC)cc(-c2cncc(CN(C)CCN)c2)c1` reads over 10 µM; that for `CNCCN(C)Cc1cncc(-c2cccc(NS(=O)(=O)c3ccc(C(F)(F)F)cc3)c2)c1`, over 5 µM; that for `CNCCN(C)Cc1cncc(-c2cccc(N(S(=O)(=O)c3ccc(C(F)(F)F)cc3)S(=O)(=O)c3ccc(C(F)(F)F)cc3)c2)c1`, over 5 µM. Take `CN(CCN)Cc1cncc(-c2cccc(NS(=O)(=O)N(C)C)c2)c1`: the IC50 in assay [1] came out at 4.4 µM. Compound `CN(CCN)C(=O)c1cncc(-c2ccc(NS(=O)(=O)C3CC3)cc2)c1` yielded an IC50 in [1] of over 5 µM. On to `CNCCN(C)Cc1cncc(-c2cccc(NC(=O)C(C)C)c2)c1`, for which, in assay [1], the IC50 worked out at 1.59 µM.

For the compound `CNCCN(C)Cc1cncc(-c2cccc(NS(=O)(=O)C(F)(F)F)c2)c1`, half-maximal inhibition in assay [1] (IC50) was put at 0.684 µM.

In turn, `CNCCN(C)Cc1cncc(-c2cccc(NS(=O)(=O)N(C)C)c2)c1` displayed a concentration for half-maximal inhibition (IC50) in assay [1] of 2.83 µM. Regarding `CNCCN(C)Cc1cncc(-c2cccc(NS(=O)(=O)c3ccc(C)cc3)c2)c1`, the IC50 in assay [1] was over 5 µM. In assay [1], `CNCCN(C)Cc1ccncc1-c1ccc(NS(=O)(=O)C2CC2)cc1` showed an IC50 of 3.09 µM.

Turning to `CN(CCN)Cc1cncc(-c2ccc(NS(=O)(=O)C3CC3)cc2)c1`, the IC50 in assay [1] came to 1.8 µM. As to `CNCCN(C)Cc1cncc(-c2cccc(NS(=O)(=O)Cc3ccccc3)c2)c1`, in assay [1], the IC50 was over 5 µM. As for `CNCCN(C)C(=O)c1cncc(-c2ccc(NS(=O)(=O)C3CC3)cc2)c1`, the IC50 in [1] was over 5 µM. Turning to `CN(CCN)Cc1cncc(-c2cccc(NS(=O)(=O)c3ccc([N+](=O)[O-])cc3)c2)c1`, the IC50 in assay [1] is over 5 µM. The same measure, in the same setting: the result for `CNCCN(C)Cc1cncc(-c2ccc(NC(=O)N3CCOCC3)cc2)c1` reads 1.35 µM. For `CN(CCN)Cc1cncc(-c2ccc(CN3CCOCC3)cc2)c1`, the midpoint of inhibition in assay [1], the IC50, lay at 5.24 µM. The same measure, in the same setting: in the case of `CNCCN(C)Cc1cncc(-c2cccc(NS(=O)(=O)C3CC3)c2)c1` it was 0.262 µM. Still for that read-out and setting: in the case of `CNCCN(C)Cc1cncc(-c2ccc(NS(=O)(=O)C(F)(F)F)cc2)c1` it was 0.213 µM. `CN(CCN)Cc1cncc(-c2cccc(NS(=O)(=O)C3CC3)c2)c1`: in assay [1], the IC50 was determined as 2.97 µM. The same measure, in the same setting: in the case of `CNCCN(C)Cc1cncc(-c2cccc(NS(=O)(=O)c3cccs3)c2)c1` it was 2.57 µM; in that of `CNCCN(C)Cc1cncc(-c2cccc(NS(=O)(=O)c3ccccc3C)c2)c1`, 1.05 µM; in that of `CNCCN(C)Cc1cncc(-c2cccc(NS(=O)(=O)c3cnn(C)c3)c2)c1`, over 5 µM. The same measure, in the same setting: in the case of `CNCCN(C)C(=O)c1cncc(-c2cccc(NS(=O)(=O)C3CC3)c2)c1` it was over 5 µM; in that of `CNCCNC(=O)c1cncc(-c2ccc(NS(=O)(=O)C3CC3)cc2)c1`, over 5 µM. Still for that read-out and setting: the result for `Nc1ncnc2c1ncn2[C@@H]1O[C@H](CSCC[C@H](N)C(=O)O)[C@@H](O)[C@H]1O` [S-ADENOSYLHOMOCYSTEINE] reads 2.18 µM. Turning to `CNCCN(C)Cc1c[nH]nc1-c1ccc(O[C@H]2C[C@H](OCCC3CCOCC3)C2)cc1`, the Activity with MDA-MB-435 [2] was found to be 0.64%; in the assay on HCC827 [3], 3.11%; in the assay with MDA-MB-435 [9], 0.93%; in the assay with HCC827 [10], 6.69%; with MDA-MB-435 [11], 2.82%; in the assay on HCC827 [13], 3.65%. For the same compound, the IC50 is 90.4 µM in the assay on MDA-MB-435 [4]; 4.15 µM in the assay with HCC827 [5]; 94.7 µM with MDA-MB-435 [6]; 1.1 µM in the assay with MDA-MB-435 [7]; 0.0071 µM in assay [1]; over 100 µM in the assay on HCC827 [8]. In the assay with HCC827 [12], the IC50 was 8.57 µM. `CN(CCN)Cc1cncc(-c2cccc(NS(=O)(=O)c3cnn(C)c3)c2)c1` showed a 50% inhibitory concentration (IC50) in [1] of over 5 µM. For the compound `NCCNC(=O)c1cncc(-c2ccc(NS(=O)(=O)C3CC3)cc2)c1`, in assay [1], the IC50 was over 5 µM.
